Results published in US20110105457A1, “HETEROCYCLIC COMPOUND HAVING INHIBITORY ACTIVITY ON PI3K” (SHIONOGI & CO., LTD., priority 2008, published 2011).

Experiments:
[1] = system: AKT phosphorylation (Ser473) in THP-1 cells; assay: AKT phosphorylation inhibitory activity in MCP-1 stimulated THP-1 cells (ELISA); type: cell-based, human; settings: MCP-1 stimulation, compound concentration not given
Procedure: (1) The AKT phosphorylation inhibitory activity of a compound was evaluated according to the following procedure. (2) Human monocyte-like cell line THP-1 was washed with RPMI-1640 media, incubated in the presence of 5% CO2 at 37 degrees Celsius for 3 hours, washed with Hank's balanced salt solution (HBSS), adjusted to a cell concentration of 6.6×10^6/mL, and then used in an experiment. (3) 30 μL of the cell suspension and 60 μL of each compound solution comprising 0.2% DMSO/HBSS are mixed, and then preincubated at 37 degrees Celsius for 5 minutes. 30 μL of HBSS comprising 4 μg/mL of MCP-1 was added thereto, and then incubated for 30 seconds at 37 degrees Celsius. (4) 30 μL of 20 mM Tris-HCl (pH 7.5)/150 mM NaCl/1 mM Na2EDTA/1 mM EGTA/1% Triton/2.5 mM sodium pyrophosphate/1 mM β-glycerophosphate/1 mM Na3VO4/1 μg/ml leupeptin/50 nM APMSF was added thereto to dissolve cells. (5) The amount of AKT phosphorylation in a cell solution was measured by ELISA method. (6) To a micro well plate to which anti-phospho-Akt (Ser473) antibody (clone 193H12, derived from a rabbit) was solid-phased was added 100 μL of a prepared cell solution, incubated for 2 hours at 37 degrees Celsius, and then washed four times with Phosphate Buffered Saline/0.05% Tween-20. (7) An anti-AKT1 antibody (clone 2H10, derived from a mouse) was added thereto, incubated for 1 hour at 37 degrees Celsius, washed similarly, and then reacted with an HRP-labeled anti-mouse IgG antibody. (8) After incubating at 37 degrees Celsius for 30 minutes and then washing similarly, 100 μL of TMB (3,3′,5,5″-tetramethylbenzidine) was added thereto, followed by reacting at room temperature for 30 minutes. (9) 100 μL of 1 mol/L sulfuric acid was added to quench the color reaction, and then the absorbance at 450 nm was measured. (10) A series of diluted cell solutions of a positive control (a sample in the absence of a compound) were used as a calibration curve, the amount of AKT phosphorylation in a sample in the absence of MCP-1 was defined as 0% activity to calculate an inhibition ratio.

Solubility test = type: physicochemical; settings: 25 °C, fassgf or other biorelevant, kinetic from dmso stock, artificial intestinal juice pH 6.8, 1% DMSO, 25 degrees Celsius
Procedure: 10 mM compound solution was prepared using DMSO, and then 6 μL of the compound solution was added to 594 μL of artificial intestinal juice in pH 6.8 (to 250 mL of 0.2 mol/L potassium dihydrogen phosphate reagent solution was added 118 mL of 0.2 mol/L NaOH reagent solution and water to provide a final volume of 1000 mL). After standing at 25 degrees Celsius for 16 hours, the mixed solution was filtrated with suction. The filtrate was diluted twice with methanol/water (1/1), and then a concentration in the filtration was measured with HPLC or LC/MS/MS by the absolute calibration method.

PI-3 kinase γ [2] = biological target: T1, PI-3 kinase γ (Homo sapiens, UniProt P48736); assay: PI3Kγ inhibitory activity, PI3-kinase HTRF assay (Millipore); type: biochemical; settings: 0.5 h; compound 50 μM; read-out: Inhibition ratio % (50 μM)
T1 sequence (P48736 whole entry, the tested form may be a part): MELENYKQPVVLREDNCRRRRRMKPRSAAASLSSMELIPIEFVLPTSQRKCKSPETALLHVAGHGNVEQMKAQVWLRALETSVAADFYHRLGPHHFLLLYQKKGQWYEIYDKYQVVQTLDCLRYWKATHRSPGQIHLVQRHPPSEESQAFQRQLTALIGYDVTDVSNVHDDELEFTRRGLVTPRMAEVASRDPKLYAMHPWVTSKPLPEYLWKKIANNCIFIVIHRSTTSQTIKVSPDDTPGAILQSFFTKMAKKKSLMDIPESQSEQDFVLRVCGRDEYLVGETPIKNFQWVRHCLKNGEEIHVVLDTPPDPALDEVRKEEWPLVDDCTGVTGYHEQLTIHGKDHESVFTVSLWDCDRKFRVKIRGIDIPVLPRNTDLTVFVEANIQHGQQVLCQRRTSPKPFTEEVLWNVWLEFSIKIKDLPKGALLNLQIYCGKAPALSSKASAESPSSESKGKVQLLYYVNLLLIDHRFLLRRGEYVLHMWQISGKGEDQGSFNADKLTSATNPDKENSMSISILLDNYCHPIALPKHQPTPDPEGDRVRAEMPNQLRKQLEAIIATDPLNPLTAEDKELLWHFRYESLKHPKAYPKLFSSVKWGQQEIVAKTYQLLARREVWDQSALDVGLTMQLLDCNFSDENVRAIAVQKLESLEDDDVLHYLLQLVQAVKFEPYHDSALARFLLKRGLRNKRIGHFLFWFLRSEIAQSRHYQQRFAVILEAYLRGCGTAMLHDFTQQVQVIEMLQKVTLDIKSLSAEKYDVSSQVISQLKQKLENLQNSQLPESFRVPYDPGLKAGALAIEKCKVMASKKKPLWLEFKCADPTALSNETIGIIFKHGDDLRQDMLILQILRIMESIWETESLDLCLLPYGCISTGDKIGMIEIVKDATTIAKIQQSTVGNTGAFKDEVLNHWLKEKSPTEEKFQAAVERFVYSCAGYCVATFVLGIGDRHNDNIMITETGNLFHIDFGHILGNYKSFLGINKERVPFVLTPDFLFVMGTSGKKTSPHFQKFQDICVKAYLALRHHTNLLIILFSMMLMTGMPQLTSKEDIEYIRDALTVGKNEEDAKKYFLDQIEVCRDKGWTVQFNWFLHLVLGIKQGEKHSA
Method in brief: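 HTRF assay: PI3Kγ preincubated 10 min with compound and PIP2 substrate in MgCl2/DTT buffer, then reaction started with ATP and run 30 min at room temperature before EDTA/biotin-PIP3 quench. Read after 18 h with Eu anti-GST/GST-PH domain/APC-streptavidin as 665/620 nm ratio; inhibition relative to no-compound (100%) and no-enzyme (0%) wells.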

[3] = Metabolic stability test, pooled human liver microsome; type: in vitro ADME; settings: human liver microsome 0.5 mg protein/mL, NADPH, 37 degrees Celsius, 30 minutes
Procedure: After a subject compound was reacted for a certain time using a pooled human liver microsome commercially available, a reacted sample and an unreacted sample are compared to calculate a survival ratio, and then the degree of metabolism in the liver was evaluated.
0.2 mL of a buffer solution (50 mmol/L of Tris-HCl in pH 7.4, 150 mmol/L of potassium chloride, and 10 mmol/L of magnesium chloride) containing a human liver microsome of 0.5 mg protein/mL was reacted in the presence of 1 mmol/L NADPH at 37 degrees Celsius for 0 or 30 minutes (oxidative reaction). After reacting, 50 μL of the reaction solution was added to 100 μL of a solution of methanol/acetonitrile (1/1(v/v)), mixed, and then centrifuged at 3000 rpm for 15 minutes. A test compound in the supernatant was quantitated with LC/MS/MS. An amount of the compound remained at a reaction time of 0 minute was defined as 100%, and, based on that, an amount of the test compound remained after the reaction was calculated.

PI-3 kinase γ [4] = biological target: T1, PI-3 kinase γ; assay: PI3Kγ inhibitory activity (Ki value), HTRF assay; type: biochemical; settings: calculated from IC50, test ATP 10 μM
Procedure: The PI3Kγ inhibitory activity (Ki value) of a compound was evaluated according to the following procedure.
5 μL of a compound solution comprising 10% DMSO and 200 μM of a compound was changed to 5 μL of a compound solution comprising 10% DMSO and 200, 64, 20, 6.4, 2, 0.64, or 0.20 μM of the compound (optionally, this is diluted to a lower concentration). By a method similar to the method for measuring PI3Kγ inhibitory activity, inhibition ratios were measured in the presence of the compound of 50, 16, 5, 1.6, 0.5, 0.16, and 0.05 μM (optionally, a lower concentration), and then an IC50 value was calculated by a logistic approximation method, or the linear regression method using two concentrations that across 50% inhibition. Separately, 5 μL of 40 μM ATP/10 mM MgCl2/5 mM DTT at the time of the start of a reaction in the absence of a compound was changed to 5 μL of 80, 40, 20, 10, 5, 2.5, 1.25, or 0.625 μM ATP/10 mM MgCl2/5 mM DTT, and then ratios of HTRF was measured by a similar method. The value of subtracting an HTRF ratio at each ATP concentration from an HTRF ratio in the absence of PI-3 kinase γ was defined as a value of multiplying reaction rate v by a constant to calculate the Michaelis-Menten constant Km by the Lineweaver-Burk plot method. A Ki value of a compound was calculated by the following formula.

CYP2C19 = biological target: T2, CYP2C19 (Homo sapiens, UniProt P33261); assay: CYP inhibition test, pooled human liver microsome, 4′-hydroxylation of mephenyloin; type: in vitro ADME; settings: S-mephenyloin
T2 construct: Using a pooled human liver microsome commercially available; from tissue; host or cells: pooled human liver microsomes
T2 sequence (P33261 whole entry): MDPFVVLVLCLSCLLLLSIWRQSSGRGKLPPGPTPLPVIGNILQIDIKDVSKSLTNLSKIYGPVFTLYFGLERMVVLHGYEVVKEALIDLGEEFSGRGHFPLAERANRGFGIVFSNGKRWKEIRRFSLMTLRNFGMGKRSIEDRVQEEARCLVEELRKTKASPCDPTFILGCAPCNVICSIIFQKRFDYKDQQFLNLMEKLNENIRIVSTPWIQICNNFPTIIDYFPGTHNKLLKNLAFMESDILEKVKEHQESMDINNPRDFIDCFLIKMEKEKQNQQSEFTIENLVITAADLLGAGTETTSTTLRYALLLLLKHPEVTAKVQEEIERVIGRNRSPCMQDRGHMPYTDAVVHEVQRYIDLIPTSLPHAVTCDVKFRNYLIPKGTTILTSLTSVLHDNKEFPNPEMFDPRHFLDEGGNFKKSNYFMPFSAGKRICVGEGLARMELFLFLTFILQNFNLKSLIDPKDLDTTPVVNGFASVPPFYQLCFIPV
Procedure: (§1) Using a pooled human liver microsome commercially available, and selecting as indexes O-de-ethylation of 7-ethoxyresorufin (CYP1A2), methyl-hydroxylation of tolbutamide (CYP2C9), 4′-hydroxylation of mephenyloin (CYP2C19), O-demethylation of dextromethorphan (CYP2D6), and hydroxylation of terfenadine (CYP3A4), which are typical substrate metabolic reactions of human main CYP5 molecular species (CYP1A2, 2C9, 2C19, 2D6, and 3A4), it was evaluated in what degree the amount of each metabolite produced was inhibited by a test compound.
(§2) The reaction condition is as follows: substrate, 0.5 μmol/L of ethoxyresorufin (CYP1A2), 100 μmol/L of tolbutamide (CYP2C9), 50 μmol/L of S-mephenyloin (CYP2C19), 5 μmol/L of dextromethorphan (CYP2D6), and 1 μmol/L of terfenadine (CYP3A4); reaction time, 15 minutes; reaction temperature, 37 degrees Celsius; enzyme, pooled human liver microsome 0.2 mg protein/mL; test drug concentration, 1, 5, 10, and 20 μmol/L (4 points).
(§3) To a 96-well plate was added five kinds of substrates, a human liver microsome, and a test drug in 50 mM Hepes buffer solution as a reaction solution in the aforementioned constitution. A coenzyme NADPH was added to start a metabolic reaction, which is an index. After reacting at 37 degrees Celsius for 15 minutes, a solution of methanol/acetonitrile (1/1 (v/v)) was added to quench the reaction. After centrifugation at 3000 rpm for 15 minutes, resorufine (CYP1A2 metabolite) in the supernatant was quantitated with a fluorescence multilabel counter, and hydroxylated tolbutamide (CYP2C9 metabolite), 4′-hydroxylated mephenyloin (CYP2C19 metabolite), […] (CYP2D6 metabolite), terfenadine in alcohol form (CYP3A4 metabolite) were quantitated with LC/MS/MS.
(§4) The case that only DMSO, a solvent which dissolved a drug, was added to a reaction system was defined as a control (100%). The remaining activity (%) at each concentration in cases that a test drug solution was added was calculated, and then IC50 was calculated with a concentration and an inhibition ratio by an inverse estimation using a logistic model.

CYP3A4 = biological target: T3, CYP3A4 (Homo sapiens, UniProt P08684); assay: CYP inhibition test, pooled human liver microsome, hydroxylation of terfenadine; type: in vitro ADME
T3 construct: Using a pooled human liver microsome commercially available; from tissue; host or cells: pooled human liver microsomes
T3 sequence (P08684 whole entry): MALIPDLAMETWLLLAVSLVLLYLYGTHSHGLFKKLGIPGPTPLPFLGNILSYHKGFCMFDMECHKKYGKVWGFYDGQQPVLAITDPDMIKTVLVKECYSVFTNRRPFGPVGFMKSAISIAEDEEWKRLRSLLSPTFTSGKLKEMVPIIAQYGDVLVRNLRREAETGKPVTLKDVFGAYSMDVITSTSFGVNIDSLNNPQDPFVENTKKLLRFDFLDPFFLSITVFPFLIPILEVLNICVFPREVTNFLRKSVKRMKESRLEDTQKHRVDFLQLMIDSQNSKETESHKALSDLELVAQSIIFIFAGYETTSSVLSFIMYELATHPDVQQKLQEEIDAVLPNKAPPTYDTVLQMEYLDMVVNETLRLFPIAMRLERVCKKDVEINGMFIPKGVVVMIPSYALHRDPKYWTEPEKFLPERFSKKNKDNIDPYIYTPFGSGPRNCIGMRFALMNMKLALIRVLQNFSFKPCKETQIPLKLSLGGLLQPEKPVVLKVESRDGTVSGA
Procedure: as §1, §2, §3, §4

CYP2D6 = biological target: T4, CYP2D6 (Homo sapiens, UniProt P10635); assay: CYP inhibition test, pooled human liver microsome, O-demethylation of dextromethorphan; type: in vitro ADME
T4 construct: Using a pooled human liver microsome commercially available; from tissue; host or cells: pooled human liver microsomes
T4 sequence (P10635 whole entry): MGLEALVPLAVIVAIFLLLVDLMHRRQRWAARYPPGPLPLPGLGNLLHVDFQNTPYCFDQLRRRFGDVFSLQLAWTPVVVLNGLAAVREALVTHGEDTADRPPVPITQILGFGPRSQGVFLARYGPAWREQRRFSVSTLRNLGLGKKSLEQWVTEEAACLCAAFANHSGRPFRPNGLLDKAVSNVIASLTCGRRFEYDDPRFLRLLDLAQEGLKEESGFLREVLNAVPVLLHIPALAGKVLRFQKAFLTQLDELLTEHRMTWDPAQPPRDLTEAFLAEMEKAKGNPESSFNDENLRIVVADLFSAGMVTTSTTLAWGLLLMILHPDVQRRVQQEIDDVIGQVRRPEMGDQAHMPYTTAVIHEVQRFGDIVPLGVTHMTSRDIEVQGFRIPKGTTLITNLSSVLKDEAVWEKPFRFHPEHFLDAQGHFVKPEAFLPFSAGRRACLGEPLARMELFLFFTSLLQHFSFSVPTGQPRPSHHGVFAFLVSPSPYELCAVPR
Procedure: as §1, §2, §3, §4

CYP1A2 = biological target: T5, CYP1A2 (Homo sapiens, UniProt P05177); assay: CYP inhibition test, pooled human liver microsome, O-de-ethylation of 7-ethoxyresorufin; type: in vitro ADME
T5 construct: Using a pooled human liver microsome commercially available; from tissue; host or cells: pooled human liver microsomes
T5 sequence (P05177 1-516): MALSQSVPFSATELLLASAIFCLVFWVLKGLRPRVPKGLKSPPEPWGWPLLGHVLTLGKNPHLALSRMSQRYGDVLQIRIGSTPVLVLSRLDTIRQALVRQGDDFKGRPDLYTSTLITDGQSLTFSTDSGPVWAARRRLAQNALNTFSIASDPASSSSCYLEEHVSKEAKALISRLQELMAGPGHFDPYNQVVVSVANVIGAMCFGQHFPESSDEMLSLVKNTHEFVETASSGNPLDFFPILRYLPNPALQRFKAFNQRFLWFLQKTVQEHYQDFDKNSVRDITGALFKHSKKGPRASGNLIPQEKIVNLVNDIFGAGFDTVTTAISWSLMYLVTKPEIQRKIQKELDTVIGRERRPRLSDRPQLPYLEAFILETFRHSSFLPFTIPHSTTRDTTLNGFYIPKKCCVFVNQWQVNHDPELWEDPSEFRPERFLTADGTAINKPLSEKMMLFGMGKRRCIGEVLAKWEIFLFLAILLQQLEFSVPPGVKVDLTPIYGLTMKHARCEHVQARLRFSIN
Procedure: as §1, §2, §3, §4

CYP2C9 = biological target: T6, CYP2C9 (Homo sapiens, UniProt P11712); assay: CYP inhibition test, pooled human liver microsome, methyl-hydroxylation of tolbutamide; type: in vitro ADME
T6 construct: Using a pooled human liver microsome commercially available; from tissue; host or cells: pooled human liver microsomes
T6 sequence (P11712 whole entry): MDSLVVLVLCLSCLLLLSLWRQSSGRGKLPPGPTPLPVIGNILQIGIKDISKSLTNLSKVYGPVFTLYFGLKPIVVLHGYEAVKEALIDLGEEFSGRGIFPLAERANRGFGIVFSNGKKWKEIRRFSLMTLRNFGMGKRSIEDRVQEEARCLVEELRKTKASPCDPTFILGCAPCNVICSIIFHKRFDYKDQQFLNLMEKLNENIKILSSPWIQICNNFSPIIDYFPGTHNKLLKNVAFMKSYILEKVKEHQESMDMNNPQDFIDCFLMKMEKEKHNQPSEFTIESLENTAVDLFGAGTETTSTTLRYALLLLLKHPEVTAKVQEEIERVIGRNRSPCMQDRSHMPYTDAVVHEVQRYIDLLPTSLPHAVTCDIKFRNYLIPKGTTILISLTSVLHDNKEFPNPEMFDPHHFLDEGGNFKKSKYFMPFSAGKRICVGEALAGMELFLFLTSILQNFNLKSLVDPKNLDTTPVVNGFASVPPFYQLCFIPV
Procedure: as §1, §2, §3, §4

Compound | AKT phosphorylation inhibition ratio [1] [%] | solubility at 16 h (Solubility test) [µM] | inhibition at 50 µM (PI-3 kinase γ [2]) [%] | Amount of the test compound remained after the reaction [3] [%] | Ki (PI-3 kinase γ [4]) [µM] | IC50 (CYP2C19) [µM] | IC50 (CYP3A4) [µM] | IC50 (CYP2D6) [µM] | IC50 (CYP1A2) [µM] | IC50 (CYP2C9) [µM]
CNC(=O)Nc1cn2nc(-c3cccnc3)ccc2n1 [Compound I-37] | 86.7 | > 50 | 86 | 96.8 |  |  |  |  |  | 
CCNC(=O)Nc1cn2nc(-c3cccc(OC)c3)ccc2n1 [Compound I-119] | 92.9 |  | 96 |  |  |  |  |  |  | 
COc1cccc(-c2ccc3nc(NC(=O)NCC(=O)O)cn3n2)c1 [Compound I-120] |  | > 50 | 85 |  | 0.046 |  |  |  |  | 
CNC(=O)Nc1cn2nc(-c3cncc(OC)c3)ccc2n1 [Compound I-144] |  | > 50 | 83 |  | 0.052 |  |  |  |  | 
COc1cncc(-c2ccc3nc(NC(=O)NCC(=O)O)cn3n2)c1 [Compound I-224] |  | > 50 | 89 |  | 0.074 | > 20 | > 20 | > 20 | > 20 | > 20
COc1cccc(-c2ccc3nc(NC(=O)NCCC(=O)O)cn3n2)c1 [Compound I-260] |  |  | 73 |  |  | > 20 | > 20 | > 20 | > 20 | > 20
COc1cccc(-c2ccc3nc(NC(=O)NCCCS(=O)(=O)c4ccccc4)cn3n2)c1 [Compound I-266] | 90.1 |  |  |  |  |  |  |  |  | 
COc1cccc(-c2ccc3nc(NC(=O)NCc4cc(=O)[nH]o4)cn3n2)c1 [Compound I-267] |  |  | 61 |  |  | > 20 | > 20 | > 20 | > 20 | > 20
COc1cccc(-c2ccc3nc(NC(=O)NO)cn3n2)c1 [Compound I-274] | 82.6 |  | 88 |  |  |  |  |  |  | 
COc1cccc(-c2ccc3nc(NC(=O)NCc4nn[nH]n4)cn3n2)c1 [Compound I-292] |  | > 50 | 74 |  |  | > 20 | > 20 | > 20 | > 20 | > 20
